Source: publication PMC13186263 (The Journal of organic chemistry, 2020)

What was measured:
PKCα = PKCα (Homo sapiens, UniProt P17252); assay: biochemical; format: binding
PKCβI = PKCβI (Homo sapiens, UniProt P05771); assay: PKC binding assay, competition with 3H-PDBu
PKCδ = PKCδ (Homo sapiens, UniProt Q05655); assay: PKC binding assay, competition with 3H-PDBu
PKCε = biological target: T1, PKCε (Homo sapiens, UniProt Q02156); assay: PKC binding assay, competition with 3H-PDBu
T1 sequence (Q02156 1-737): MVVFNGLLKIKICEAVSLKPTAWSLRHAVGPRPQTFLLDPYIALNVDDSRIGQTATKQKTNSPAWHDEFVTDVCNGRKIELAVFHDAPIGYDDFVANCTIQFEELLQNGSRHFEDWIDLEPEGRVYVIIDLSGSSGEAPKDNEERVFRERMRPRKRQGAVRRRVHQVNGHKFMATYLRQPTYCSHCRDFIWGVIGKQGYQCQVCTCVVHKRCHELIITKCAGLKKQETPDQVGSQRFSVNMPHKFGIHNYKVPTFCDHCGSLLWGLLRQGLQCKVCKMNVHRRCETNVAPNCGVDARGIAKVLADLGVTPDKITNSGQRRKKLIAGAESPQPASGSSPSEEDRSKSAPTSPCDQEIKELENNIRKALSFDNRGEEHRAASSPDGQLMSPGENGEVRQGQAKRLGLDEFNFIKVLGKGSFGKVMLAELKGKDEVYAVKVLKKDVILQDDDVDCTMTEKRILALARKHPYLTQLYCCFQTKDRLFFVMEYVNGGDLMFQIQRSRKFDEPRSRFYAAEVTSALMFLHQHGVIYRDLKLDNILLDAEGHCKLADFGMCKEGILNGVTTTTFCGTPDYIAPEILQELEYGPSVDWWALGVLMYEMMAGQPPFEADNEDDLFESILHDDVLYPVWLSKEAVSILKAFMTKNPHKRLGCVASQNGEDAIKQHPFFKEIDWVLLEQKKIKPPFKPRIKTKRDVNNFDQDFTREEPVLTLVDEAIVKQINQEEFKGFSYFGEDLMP

PKCθ = PKCθ (Homo sapiens, UniProt Q04759); assay: PKC binding assay, competition with 3H-PDBu
PKC isoforms = assay: Cell-free competitive PKC binding, statements across isoforms; parameters: species or system human; conditions: five PKC isoforms

PKCθ, sequence (Q04759 whole entry, canonical isoform): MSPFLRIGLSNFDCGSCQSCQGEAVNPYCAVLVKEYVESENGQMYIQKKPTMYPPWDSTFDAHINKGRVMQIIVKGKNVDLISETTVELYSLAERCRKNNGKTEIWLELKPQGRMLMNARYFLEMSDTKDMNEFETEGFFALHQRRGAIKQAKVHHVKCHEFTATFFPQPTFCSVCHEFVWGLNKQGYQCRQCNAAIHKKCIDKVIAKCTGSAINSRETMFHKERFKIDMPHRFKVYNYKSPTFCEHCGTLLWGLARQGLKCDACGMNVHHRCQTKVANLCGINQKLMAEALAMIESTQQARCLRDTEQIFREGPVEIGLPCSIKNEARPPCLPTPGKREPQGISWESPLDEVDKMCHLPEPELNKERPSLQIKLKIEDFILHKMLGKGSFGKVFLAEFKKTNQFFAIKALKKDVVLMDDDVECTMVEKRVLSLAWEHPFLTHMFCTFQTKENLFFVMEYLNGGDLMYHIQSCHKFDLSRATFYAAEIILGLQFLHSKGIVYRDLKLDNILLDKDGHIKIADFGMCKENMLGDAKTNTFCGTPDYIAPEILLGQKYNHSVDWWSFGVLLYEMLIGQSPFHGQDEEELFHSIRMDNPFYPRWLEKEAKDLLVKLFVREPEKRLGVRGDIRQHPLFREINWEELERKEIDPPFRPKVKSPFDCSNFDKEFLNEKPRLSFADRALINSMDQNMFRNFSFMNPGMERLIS
PKCδ, sequence (Q05655 whole entry): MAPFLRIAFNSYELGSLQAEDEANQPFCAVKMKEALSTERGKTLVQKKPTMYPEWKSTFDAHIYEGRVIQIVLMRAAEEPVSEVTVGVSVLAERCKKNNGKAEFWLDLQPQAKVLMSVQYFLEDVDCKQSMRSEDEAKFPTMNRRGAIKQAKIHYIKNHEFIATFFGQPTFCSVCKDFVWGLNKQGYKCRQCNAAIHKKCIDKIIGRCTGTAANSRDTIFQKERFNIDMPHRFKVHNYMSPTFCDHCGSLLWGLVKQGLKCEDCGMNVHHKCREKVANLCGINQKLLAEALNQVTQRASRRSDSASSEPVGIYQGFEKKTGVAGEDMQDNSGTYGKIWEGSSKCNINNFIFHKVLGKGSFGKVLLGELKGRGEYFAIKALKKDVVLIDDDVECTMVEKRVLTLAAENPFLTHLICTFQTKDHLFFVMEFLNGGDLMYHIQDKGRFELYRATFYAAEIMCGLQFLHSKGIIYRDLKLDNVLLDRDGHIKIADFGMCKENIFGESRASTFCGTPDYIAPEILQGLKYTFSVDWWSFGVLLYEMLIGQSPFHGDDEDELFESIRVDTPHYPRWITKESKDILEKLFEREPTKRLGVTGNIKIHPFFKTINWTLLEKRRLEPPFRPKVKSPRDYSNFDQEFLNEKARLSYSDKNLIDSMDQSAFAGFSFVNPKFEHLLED
PKCβI, sequence (P05771 whole entry): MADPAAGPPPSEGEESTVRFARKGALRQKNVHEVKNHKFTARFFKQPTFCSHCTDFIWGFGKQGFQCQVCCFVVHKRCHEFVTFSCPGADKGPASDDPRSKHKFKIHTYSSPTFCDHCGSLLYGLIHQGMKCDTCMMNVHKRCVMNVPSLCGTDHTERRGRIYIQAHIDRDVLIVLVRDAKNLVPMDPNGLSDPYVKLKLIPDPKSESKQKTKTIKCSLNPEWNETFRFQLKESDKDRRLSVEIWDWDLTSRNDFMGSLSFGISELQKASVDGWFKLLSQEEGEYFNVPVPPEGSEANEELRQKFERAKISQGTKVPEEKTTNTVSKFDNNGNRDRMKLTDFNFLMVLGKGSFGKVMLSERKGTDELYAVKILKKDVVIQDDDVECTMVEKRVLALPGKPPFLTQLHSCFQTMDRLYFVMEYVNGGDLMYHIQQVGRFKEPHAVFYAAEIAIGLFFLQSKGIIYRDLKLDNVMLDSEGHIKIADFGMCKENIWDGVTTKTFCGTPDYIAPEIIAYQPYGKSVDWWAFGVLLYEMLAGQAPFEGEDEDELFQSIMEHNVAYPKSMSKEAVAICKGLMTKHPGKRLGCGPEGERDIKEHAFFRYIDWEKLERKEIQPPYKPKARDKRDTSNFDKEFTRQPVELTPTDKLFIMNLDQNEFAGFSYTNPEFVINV

In the case of `CCCCCCCC(=O)O[C@H]1/C(=C/C(=O)OC)C[C@H]2C[C@H](CO)OC(=O)CCCC(=O)OCC(C)(C)[C@]1(O)O2` [7a, (1S,3R,13S,14S,E)-13-Hydroxy-3-(hydroxymethyl)-15-(2-methoxy-2-oxoethylidene)-12,12-dimethyl-5,9-dioxo-4,10,17-trioxabicyclo[11.3.1]heptadecan-14-yl Octanoate], the Ki (PKCα) is reported as 4.4 nM, the Ki (PKCβI) is reported as 4 nM and the Ki (PKCδ) is reported as 1.7 nM. The Ki (PKCε) was 2.7 nM, the Ki (PKCθ) was 1.5 nM and the “PKC binding affinities” value (PKC isoforms) was “comparable to bryostatin”.
`CCCCCCCC(=O)O[C@H]1/C(=C/C(=O)OC)C[C@H]2C[C@H]([C@@H](C)O)OC(=O)CCCC(=O)OCC(C)(C)[C@]1(O)O2` [7b, (1S,3R,13S,14S,E)-13-Hydroxy-3-((R)-1-hydroxyethyl)-15-(2-methoxy-2-oxoethylidene)-12,12-dimethyl-5,9-dioxo-4,10,17-trioxabicyclo[11.3.1]heptadecan-14-yl Octanoate] was tested, and the “PKC binding affinities” value (PKC isoforms) was “strongly attenuated binding affinity relative to the des-methyl compound 7a”.
With `CCC/C=C/C=C/C(=O)O[C@H]1/C(=C/C(=O)OC)C[C@H]2C[C@H]([C@@H](C)O)OC(=O)C[C@H](O)C[C@@H]3C[C@H](OC(C)=O)C(C)(C)[C@](O)(C[C@@H]4C/C(=C/C(=O)OC)C[C@H](/C=C/C(C)(C)[C@]1(O)O2)O4)O3` [bryostatin 1, Bryostatin 1, reference compound] the Ki (PKCε) was 3 nM and the Ki (PKCθ) was 1.5 nM.
